In publication PMC8355244, “A fragment-based approach identifies an allosteric pocket that impacts malate dehydrogenase activity” (Communications Biology, 2021):
Several values for one entry are separate records, joined by “and”; a condition that tells them apart may be missing. Identical values can stand only once. Like-named read-outs stand apart in the source and are kept apart here.

How the values were obtained:
PfMDH = target: T1, PfMDH (Plasmodium falciparum, UniProt Q6VVP7); assay: Thermal shift assay (TSA); type: binding; settings: three replicate columns
T1 construct: The full-length WT PfMDH gene was cloned into pETM-13; made in house; host or cells: E. coli Rosetta 2 (DE3) pLysS
Method: The TSA experiment was conducted in a BioRad CSX 96 (Biorad). Each reaction consisted of 1 mM of compound (100 mM stock in 100% (v/v) DMSO) and 10 μM PfMDH in 100 mM Na–phosphate buffer pH 7.4, 400 mM NaCl, and 10× Sypro Orange (Invitrogen) for a total volume of 100 μl. Control experiments were performed with 1% (v/v) DMSO. Inflection points were determined using BioRad CFX96™ control software. Generally, a temperature increase of over 1 °C is interpreted as a result of the stabilization of the protein-ligand interaction. On the contrary, a negative shift is considered a destabilization caused by the fragment.

WT PfMDH = target: T2, WT PfMDH (Plasmodium falciparum, UniProt Q6VVP7); assay: Activity screening of 4DT / 4-phenylthiazol-2-amine derivatives (oxidation of malate, absorbance at 340 nm); type: biochemical
T2 construct: The full-length WT PfMDH gene was cloned into pETM-13; made in house; host or cells: E. coli Rosetta 2 (DE3) pLysS
Method: The oxidation of malate to oxaloacetate was assayed spectrophotometrically in flat-bottomed Corning 96-well microplates in a total volume of 250.0 µl in 50 mM glycine buffer pH 10.2[24] with an additional 400 mM NaCl for protein stability. The increase of absorbance at 340 nm was recorded in kinetic mode using a Tecan Spark multimode microplate reader at 298 K. A mastermix of 50 mM NAD+ and 44 μM PfMDH was used for both the screening and kinetics experiments. The final concentration of protein and cofactor were […], respectively. Positive control groups were set (absence of compound) in the same plate as the treated group. The absorbance from the background noise was subtracted from the data and then a linear regression model was employed in order to get the line slope from the first 5 min of the reaction. The percentage of enzymatic activity has been calculated as described by Eq. (1)1 enzymeactivity(%)=slopetreated/slopepositivecontrol*100
1.3 µL of derivatives of 4-phenylthiazol-2-amine in 100% DMSO were mixed with 237.7 µL of a mastermix of WT PfMDH previously incubated with NAD+. The final compound concentration used in this screening was 500 µM in the presence of 0.5% (v/v) DMSO. The microplate was sealed with silver foil for 1-h incubation at 25–35 °C. Finally, reactions in both the samples and control wells were started upon the addition of 13.0 µL of 5 mM malate). At the end of the experiments, the reaction of the plate was spectrophotometrically assayed at 600 nm in order to identify turbidity due to the low solubility of the compound. All measurements were performed in duplicate.

T1 sequence (Q6VVP7 entry or part of it): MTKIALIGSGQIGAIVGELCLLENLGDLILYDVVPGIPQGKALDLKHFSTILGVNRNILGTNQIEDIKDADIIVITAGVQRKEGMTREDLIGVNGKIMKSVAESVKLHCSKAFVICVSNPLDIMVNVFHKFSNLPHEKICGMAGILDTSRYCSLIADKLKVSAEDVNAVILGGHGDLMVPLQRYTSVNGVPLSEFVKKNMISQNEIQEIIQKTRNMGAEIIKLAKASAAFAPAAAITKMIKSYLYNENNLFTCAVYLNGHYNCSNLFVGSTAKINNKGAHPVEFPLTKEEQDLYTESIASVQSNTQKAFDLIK
T2 sequence (Q6VVP7 entry or part of it): as above

Cc1ccc(-c2csc(N)n2)cc1C [compound 5a]
TSA melting curve raw fluorescence signal (PfMDH; Temperature 75): 6191,69391237371 and 6136,98106377792 and 6022,22137708791
TSA melting curve raw fluorescence signal (PfMDH; Temperature 75.5): 6155,53394325777 and 6106,56217628376 and 5994,69779058543
TSA melting curve raw fluorescence signal (PfMDH; Temperature 76): 6119,21897947977 and 6076,80705748139 and 5967,4462924716
TSA melting curve raw fluorescence signal (PfMDH; Temperature 76.5): 6082,92591216179 and 6047,4145361092 and 5940,31651314489
TSA melting curve raw fluorescence signal (PfMDH; Temperature 77): 6046,49720538895 and 6018,41753205572 and 5913,27495012434
TSA melting curve raw fluorescence signal (PfMDH; Temperature 77.5): 6010,50289688288 and 5990,00501222795 and 5885,78980691114
TSA melting curve raw fluorescence signal (PfMDH; Temperature 78): 5974,68191071035 and 5961,9413128759 and 5858,29554785782
TSA melting curve raw fluorescence signal (PfMDH; Temperature 78.5): 5938,84446109596 and 5933,98335794503 and 5831,1047548002
TSA melting curve raw fluorescence signal (PfMDH; Temperature 79): 5902,97195912381 and 5906,58331664414 and 5804,43914738993
TSA melting curve raw fluorescence signal (PfMDH; Temperature 79.5): 5867,41053847852 and 5879,50936774398 and 5777,86836204367
TSA melting curve raw fluorescence signal (PfMDH; Temperature 80): 5831,53193853565 and 5852,76984504973 and 5751,94689709266
TSA melting curve raw fluorescence signal (PfMDH; Temperature 80.5): 5795,82019427429 and 5826,58557638173 and 5726,2038969697
TSA melting curve raw fluorescence signal (PfMDH; Temperature 81): 5760,30095342266 and 5801,18894213247 and 5700,36557719877
TSA melting curve raw fluorescence signal (PfMDH; Temperature 81.5): 5725,24994225392 and 5776,10279717956 and 5674,32010159986
TSA melting curve raw fluorescence signal (PfMDH; Temperature 82): 5690,32532905286 and 5751,3477386949 and 5648,72005725552
TSA melting curve raw fluorescence signal (PfMDH; Temperature 82.5): 5655,78245522646 and 5726,77680893998 and 5623,03287837809
TSA melting curve raw fluorescence signal (PfMDH; Temperature 83): 5621,55211537617 and 5702,38981297221 and 5597,5741352507
TSA melting curve raw fluorescence signal (PfMDH; Temperature 83.5): 5587,90100461892 and 5677,89080987549 and 5572,13715933177
TSA melting curve raw fluorescence signal (PfMDH; Temperature 84): 5554,68764858678 and 5653,54864689514 and 5546,61264074355
TSA melting curve raw fluorescence signal (PfMDH; Temperature 84.5): 5522,12797974512 and 5629,23115607744 and 5520,89063035555
TSA melting curve raw fluorescence signal (PfMDH; Temperature 85): 5490,3943722303 and 5605,20109514197 and 5495,02372927899
TSA melting curve raw fluorescence signal (PfMDH; Temperature 85.5): 5459,26859138261 and 5580,93868945953 and 5469,03090217972
TSA melting curve raw fluorescence signal (PfMDH; Temperature 86): 5428,58283846294 and 5556,95201224284 and 5443,19308365262
TSA melting curve raw fluorescence signal (PfMDH; Temperature 86.5): 5398,09747442684 and 5532,99737771582 and 5417,41903670835
TSA melting curve raw fluorescence signal (PfMDH; Temperature 87): 5367,90135308437 and 5508,96565185791 and 5391,30496945424
TSA melting curve raw fluorescence signal (PfMDH; Temperature 87.5): 5337,34531670684 and 5484,37750610498 and 5364,66521912081
TSA melting curve raw fluorescence signal (PfMDH; Temperature 88): 5306,8503048902 and 5459,61999119873 and 5337,15073673697
TSA melting curve raw fluorescence signal (PfMDH; Temperature 88.5): 5276,4616972104 and 5434,08494262397 and 5308,68599271431
TSA melting curve raw fluorescence signal (PfMDH; Temperature 89): 5246,27326568905 and 5407,79046445709 and 5279,36241888361
TSA melting curve raw fluorescence signal (PfMDH; Temperature 89.5): 5216,45044474314 and 5380,95498835197 and 5249,45359350464
TSA melting curve raw fluorescence signal (PfMDH; Temperature 90): 5187,98991931244
remaining activity at 500 µM (WT PfMDH; 500 µM compound, Dunnett test details, positive control mean 100, n 2, read-out: Mean 2 (mean % enzymatic activity of treated group)): 52%
inhibition at 500 µM (WT PfMDH; 500 µM compound, Dunnett's multiple comparisons test, read-out: Mean Diff. (positive control vs. compound)): 48.5%
remaining activity at 500 µM (WT PfMDH; 500 µM compound, control 100%, replicate 1, read-out: % enzymatic activity repl1): 56%
remaining activity at 500 µM (WT PfMDH; 500 µM compound, control 100%, replicate 2, read-out: % enzymatic activity repl2): 47%
Slope repl1 (WT PfMDH; 500 µM compound, linear regression slope of absorbance 340 nm vs time, replicate 1): 0.01855
Slope repl2 (WT PfMDH; 500 µM compound, linear regression slope of absorbance 340 nm vs time, replicate 2): 0.01659
Slope normalized repl1 (WT PfMDH; 500 µM compound, slope relative to control = 1, replicate 1): 0.5569
Slope normalized repl2 (WT PfMDH; 500 µM compound, slope relative to control = 1, replicate 2): 0.4735
remaining activity at 500 µM (WT PfMDH; read-out: enzyme activity): 52%
